PubChem BioAssay AID179 (DTP/NCI, 2004)
Active and inactive are the calls of the source.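 The calls were made as follows: active = compounds giving half or more protection of infected cells from virus-caused growth loss, again on retest; inactive = the rest.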

Tested on: CEM cells HIV-1 protection, formazan growth assay
Assay: NCI AIDS Antiviral Assay
Conditions: for IC50: measured here: growth of uninfected CEM cells
In short: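 Five concentrations of each compound were applied to infected and uninfected human CEM cells. Protection from HIV-1 was judged from growth measured with a soluble formazan assay.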

Cc1cc2ccc(N)nc2[nH]c1=O
EC50: > 200 µM | IC50: > 200 µM

Cc1cc(NCCO)nc2c1ccc1ccccc12
EC50: > 141 µM | IC50: 22.4 µM

Cc1ccc(-c2cc(=S)n(-c3ccccc3)c3nc(=S)n(-c4ccccc4)c(N)c23)cc1
EC50: > 200 µM | IC50: 138 µM

N/C(=N/N=C/C1CCCCC1)NO
outcome: inactive

CCSC1=N/C(=C/c2ccccc2O)C(=O)N1
EC50: > 200 µM | IC50: 123 µM

N#C/C(=C\c1cccc(C#N)c1)c1ccccc1
EC50: > 31.6 µM | IC50: > 31.6 µM

COc1ccc2c(c1)OCC(O)(c1ccccc1)C2O (stereo unspecified)
EC50: > 200 µM | IC50: > 200 µM

O=C1CCN=C(NC(=O)C(F)(F)F)N1CCc1c[nH]c2ccccc12
EC50: > 200 µM | IC50: > 200 µM

S=C1c2ccccc2NC(=NC2CCCC2)C2CSCN12 (stereo unspecified)
EC50: > 200 µM | IC50: 148 µM

Cc1ccc(C(CCO)CCO)nc1
EC50: > 200 µM | IC50: > 200 µM

Cn1c(NNc2ccccc2)cc(=O)[nH]c1=O
EC50: > 200 µM | IC50: 28.8 µM

Nc1ccc2cc(S(=O)(=O)O)cc(O)c2c1N=Nc1ccc(-c2ccc(N=Nc3c(S(=O)(=O)O)cc4cc(S(=O)(=O)O)c(N=Nc5ccc([N+](=O)[O-])cc5)c(N)c4c3O)cc2)cc1
outcome: inactive

O=C(CNc1ccccc1[N+](=O)[O-])Nn1c(-c2ccccc2)nc2ccccc2c1=O
EC50: > 200 µM | IC50: 11.7 µM

CCOC(=O)CC(=O)ON(C)C(=O)Cc1ccccc1
EC50: > 251 µM | IC50: > 251 µM

CN(C)C1=CC(=O)C(=O)c2cnc(N(C)C)cc21
outcome: inactive

CCCCCCCCCCCCCCCC[N+](C)(C)CCN(Cc1ccc(OC)cc1)c1ncccn1
EC50: > 200 µM | IC50: 0.977 µM

CC1(c2ccc(F)cc2)OC(=O)c2c1ccc1ccccc21 (stereo unspecified)
outcome: inactive

Brc1ccc2c(c1)C1C(CO2)C(c2ccccc2)=NN1c1ccccc1 (stereo unspecified)
EC50: > 64.6 µM | IC50: > 64.6 µM

N#C/C(=C\c1cccc(Cl)c1Cl)c1ccccc1
EC50: > 24.5 µM | IC50: > 24.5 µM

COc1c(C)c2c(c(=O)c3c(C)cccc3n2C)c2c1c(=O)c1c(C)cccc1n2C
EC50: > 200 µM | IC50: 155 µM

O=C1CCC(=O)N1CNc1cccc(NCN2C(=O)CCC2=O)c1
EC50: > 39.8 µM | IC50: > 39.8 µM

S=C(N/N=C\c1ccccn1)N/N=C\c1ccccn1
EC50: > 2 µM | IC50: 0.813 µM

COc1ccc(C2Oc3c(cccc3-c3c(-c4ccc(O)cc4)oc4cc(O)cc(O)c4c3=O)C(=O)C2O)cc1O (stereo unspecified)
EC50: > 200 µM | IC50: 170 µM

C=C1C(=O)OC2C1CC[C@H](C)C13OC(=O)CC1[C@@]23C (stereo partly specified)
outcome: inactive

N#C/C(=C1/c2cc([N+](=O)[O-])ccc2-c2c1cc([N+](=O)[O-])cc2[N+](=O)[O-])N1CCCCC1
EC50: > 200 µM | IC50: > 200 µM

Cc1cn(C2CC(N=[N+]=[N-])C(COC(=O)CCCCCCCCCCN=[N+]=[N-])O2)c(=O)[nH]c1=O (stereo unspecified)
EC50: 0.0389 µM | IC50: 28.8 µM

COC(=O)c1cc(C(CCl)c2cc(C(=O)OC)c(O)c(Br)c2C)c(C)c(Br)c1O
outcome: inactive

O=C(O)Cc1cc(=O)oc2cc(O)ccc12
EC50: > 1120 µM | IC50: > 1120 µM

CCC12CCCN(Cc3ccccc3)C1c1c(n(C)c3ccccc13)C(C(=O)O)C2 (stereo unspecified)
EC50: > 7.76 µM | IC50: > 7.76 µM

CCOc1ccc2ccccc2c1NC1=NCCO1
EC50: > 200 µM | IC50: 107 µM

C=CCNC(=O)N(CCC)CCCC(NC(C)=O)C(=O)NCc1ccccc1 (stereo unspecified)
EC50: > 646 µM | IC50: > 646 µM

CCO/C=N\C1=C(C#N)SC2=N/C(=C\c3ccc(OC)cc3)C(=O)N21
EC50: > 200 µM | IC50: > 200 µM

CNC(=S)NNC1=NCCCCN1
EC50: > 200 µM | IC50: 110 µM

S=C1NC=CC(S)N1 (stereo unspecified)
EC50: > 200 µM | IC50: > 200 µM

COC(=O)CC1C(COC(C)=O)OC(n2cc(C)c(=O)[nH]c2=O)C1OC(C)=O (stereo unspecified)
outcome: inactive

Cn1c(=O)nc2n(-c3ccc(Cl)cc3)c(-c3ccccc3)c(-c3ccccc3)nc-2c1=O
outcome: inactive

Cn1nc2ccc3nccc(NCCNCCCl)c3c2n1
EC50: > 1.17 µM | IC50: > 1.17 µM

C[n+]1c(-c2ccc(/C=N/NC(=N)N/N=C/c3ccc(-c4cn5cc(Cl)ccc5[n+]4C)cc3)cc2)cn2cc(Cl)ccc21
EC50: 6.46 µM | IC50: 155 µM

CN(NC(=O)c1cccs1)C1=NCCCCN1
EC50: > 200 µM | IC50: > 200 µM

CC1(OCc2ccccc2)C(=O)N2C1NCC2(C)C (stereo unspecified)
EC50: > 251 µM | IC50: 117 µM

CC/C(Cl)=N\OC(=O)Nc1ccc(F)c(Cl)c1
outcome: inactive

C/C(=C\Cc1ccc(F)cc1)CCCCCC/C(C)=C/Cc1ccc(F)cc1
EC50: > 200 µM | IC50: 22.4 µM

Cc1ccc(N=C2SC(=NN(C)C)SC2=Nc2ccc(C)cc2)cc1
EC50: > 200 µM | IC50: > 200 µM

O=C(NN1C(=O)C(Cl)C1c1cccc(Cl)c1)c1ccccc1O (stereo unspecified)
EC50: > 74.1 µM | IC50: > 74.1 µM

Brc1ccc(-c2ccc(-c3ccc(Br)s3)s2)s1
EC50: > 200 µM | IC50: > 200 µM
